Source: publication PMC9077470 (RSC Advances, 2018)
≈ marks a conversion by molar mass, not a printed value.

Columns and labels:
[1] = Partition coefficients in n-octanol/phosphate buffer (pH 7.4); assay type: physicochemical; conditions: means ± SD, n = 3
Method: The phosphate buffer and octanol were mutually saturated at 20–22 °C before use. Samples were dissolved in the aqueous phase and the n-octanol/phosphate buffer mixtures were shaken for 24 h to reach a distribution equilibrium. The volumes of each phase were chosen so that the solute concentration in the aqueous phase, before and after distribution, could readily be measured using HPLC method. The partition coefficients (P) were calculated from the following equation: [drawing 1] where Ci and Cw represent the solute concentrations in the aqueous buffer phase before and after distribution, respectively, Vw represents the volume of the aqueous phase, and Vo is the volume of the octanol phase.[16]

[2] = tested on: SOD, MDA, GSH, GSH-Px in colonic tissues; test: TNBS-induced colitis: levels of SOD, MDA, GSH and GSH-Px in colonic tissues; assay type: in vivo, mice; conditions: vs TNBS group, p < 0.01
Method: Colitis was induced according to the previous study.[18,19] Briefly, after 12 h of fasting, mice were anesthetized with intraperitoneal pentobarbital sodium (35 mg kg^-1) before the induction of colitis. 0.1 mL of 50% (v/v) ethanol contained 2.5% (v/v) TNBS was instilled into the colon 3.5-4 cm from the anus by a gavage needle. The mice were kept in a head-down position for 30 s to prevent leakage of the intracolonic instillation. Mice in the control group received normal saline instead of TNBS solution, a physical mixture of 5-ASA and sodium butyrate was used as the positive control. […] The treatments were given once daily for 5 continuous days starting 24 hours after the induction of colitis. Colon tissue samples were homogenized with normal saline, the homogenate (10%, w/w) was centrifuged at 13 000 rpm for 15 min, and the resulting supernatant was diluted to 1% (w/w) for further assay. The protein levels of the colon homogenate were detected by a BCA protein assay kit. Then the activities of SOD and GSH-Px, and the levels of MDA and GSH of samples in each group were measured by the assay kits according to the provider's instructions.

[3] = Aqueous solubility (equilibrium, distilled water); assay type: physicochemical; conditions: 25 °C, thermodynamic from solid, 25 ± 2 °C, means ± SD, n = 3, read-out: S (aqueous solubility)
Method: The mixtures were placed in an ultrasonic water bath for 10 min and then shaken for 24 h to establish a saturation equilibrium. Upon filtration, the filtrate was diluted with an appropriate amount of water and the mixture was analyzed by HPLC, the concentration of each compound in its saturated solution was calculated.

[4] = In vitro incubation with stomach contents of rats; assay type: in vitro ADME; conditions: rat stomach contents homogenate, pH 1.2, 37 °C, after 2 h of incubation
Method: (§1) After anesthetized with diethyl ether, rats were sacrificed and their contents of stomach and small intestine were collected and homogenized respectively, the homogenate was diluted with buffer solution (pH 1.2 for stomach contents, pH 6.8 for small intestine contents) to 20% (w/v). […] After 0.25, 0.5, 1.0, 1.5, 2.0, 3.0 and 4.0 h of incubation, 200 μL of samples were collected and replaced with the same volume of blank homogenate, then samples were centrifuged at 13 000 rpm for 5 min, filtered with membrane filter, and analyzed by HPLC. The residual contents of each prodrug in homogenate were calculated and the hydrolysis curves were drawn.

[5] = tested on: MPO activity in colonic tissues; test: TNBS-induced colitis: MPO activity in colonic tissues; assay type: in vivo, mice
Method: Colitis was induced according to the previous study.[18,19] Briefly, after 12 h of fasting, mice were anesthetized with intraperitoneal pentobarbital sodium (35 mg kg^-1) before the induction of colitis. 0.1 mL of 50% (v/v) ethanol contained 2.5% (v/v) TNBS was instilled into the colon 3.5-4 cm from the anus by a gavage needle. The mice were kept in a head-down position for 30 s to prevent leakage of the intracolonic instillation. Mice in the control group received normal saline instead of TNBS solution, a physical mixture of 5-ASA and sodium butyrate was used as the positive control. […] The treatments were given once daily for 5 continuous days starting 24 hours after the induction of colitis. […] Samples were freeze-thawed three times, after which sonication was repeated. Homogenates were then centrifuged at 13 000 rpm for 30 min and MPO was extracted from the resulting supernatant.[25] MPO activity was measured by the assay kit according to its provider's instructions.

[6] = In vivo incubation in the colon of rats; conditions: injected into tied rat colon, 6 h
Method: 6 hours later, rats were sacrificed and their colon contents were separated and homogenized in 40 mL of phosphate buffer (pH 7.4). The homogenate was sonicated for 5 min and centrifuged at 13 000 rpm for 5 min, then 0.2 mL of the supernatant was collected and mixed with 0.8 mL of methanol. Finally, samples were centrifuged, filtered and analyzed by HPLC. The residual contents of each prodrug in colon contents were calculated, and the hydrolysis ratio was calculated by the following equation: [drawing 2] where Wr is the residual amount of prodrugs in the colon contents and Wi is the initial amount of prodrugs that administered to rats.

[7] = In vitro incubation with small intestine contents of rats; assay type: in vitro ADME; conditions: rat small intestine contents homogenate, pH 6.8, 37 °C, after 4 h of incubation
Method: as §1

[8] = tested on: TNBS-induced experimental colitis; test: TNBS-induced colitis: disease activity index (DAI); assay type: in vivo, mice; conditions: vs positive control (5-ASA + sodium butyrate)
Method: Colitis was induced according to the previous study.[18,19] Briefly, after 12 h of fasting, mice were anesthetized with intraperitoneal pentobarbital sodium (35 mg kg^-1) before the induction of colitis. 0.1 mL of 50% (v/v) ethanol contained 2.5% (v/v) TNBS was instilled into the colon 3.5-4 cm from the anus by a gavage needle. The mice were kept in a head-down position for 30 s to prevent leakage of the intracolonic instillation. Mice in the control group received normal saline instead of TNBS solution, a physical mixture of 5-ASA and sodium butyrate was used as the positive control. […] The treatments were given once daily for 5 continuous days starting 24 hours after the induction of colitis. DAI is ranged from 0 to 4 and it is the sum of scores given for body weight loss, stool consistency and presence or absence of fecal blood. The fecal occult blood of mice was evaluated by the ο-tolidine method.[22] A small amount of feces samples were smeared on a white plate. 2-3 drops of ο-tolidine solution (10 g L^-1, dissolved in acetic acid) were added into samples and mixed evenly. Then 2-3 drops of 3% H2O2 solution were added into the mixture, meanwhile, start the time and observe immediately. Scored as: normal, weak positive, green to light green developing over 2 min; +, positive, greenish-blue to deep green developing within 1 min; ++, positive, blue to bluish-green developing within 5-20 s; +++, very strong positive, intense blue color developing immediately.[23]

[9] = tested on: TNBS-induced experimental colitis; test: TNBS-induced colitis: body weight, survival rates, overall effect; assay type: in vivo, mice; conditions: TNBS colitis mice; Ols-DB as enema, others i.g.
Method: Colitis was induced according to the previous study.[18,19] Briefly, after 12 h of fasting, mice were anesthetized with intraperitoneal pentobarbital sodium (35 mg kg^-1) before the induction of colitis. 0.1 mL of 50% (v/v) ethanol contained 2.5% (v/v) TNBS was instilled into the colon 3.5-4 cm from the anus by a gavage needle. The mice were kept in a head-down position for 30 s to prevent leakage of the intracolonic instillation. Mice in the control group received normal saline instead of TNBS solution, a physical mixture of 5-ASA and sodium butyrate was used as the positive control. […] The treatments were given once daily for 5 continuous days starting 24 hours after the induction of colitis. After the induction of colitis, the body weight of each mice was recorded daily, and the curves of weight changes for each group were drawn to evaluate the TNBS-induced colitis. Meanwhile, the death of mice in each group was recorded daily and the final survival rates of mice were calculated.

[10] = no reference given; cited from earlier work

SMILES | P (partition coefficient) [1] | logP at 24 h [1] | GSH-Px activities in the colon [2] | MDA levels in the colon [2] | SOD activities in the colon [2] | solubility at 24 h [3] | residual content of prodrug in stomach contents [4] | MPO activity in colonic tissues ([5]; vs TNBS group, p < 0.01) | MPO activity, compared with positive control ([5]; vs positive control) | hydrolysis ratio after in vivo incubation in rat colons [6] | residual content of prodrug in small intestine contents [7] | DAI, compared with positive control [8] | therapeutic effects on the TNBS-induced UC (overall) [9] | half-time (t1/2) [10]
Nc1ccc(O)c(C(=O)O)c1 [5-ASA, 5-aminosalicylic acid, reference compound] | 4.47 ± 0.21 | 0.65 ± 0.02 | – | – | – | – | – | – | – | – | – | – | – | –
CCCC(=O)Oc1ccc(N)cc1C(=O)O [5-ASB, 5-aminosalicylic acid butyrate] | 1.45 ± 0.10 | 0.16 ± 0.03 | increased | significantly decreased | increased | 310 ± 50 mg/mL (≈ 1390 mM) | hardly hydrolyzed | significantly decreased | significantly better than the positive control | 6.79% | 100% | better effects than the positive control | certain therapeutic effects | –
CCCC(=O)O [Butyrate] | – | – | – | – | – | – | – | – | – | – | – | – | – | 6 min
